Laboratory results as given in patent US6586468B1, “ω-substituted phenyl-prostaglandin E derivatives and drugs containing the same as the active ingredient” (Ono Pharmaceutical Co., Ltd., priority 1998, dated 2003).

How the values were obtained:
EP4 = molecular target: T1, EP4 (Mus musculus, UniProt P32240); test: Binding assay using expression CHO cell of prostanoid receptor subtype, [3H]-PGE2 binding inhibition (EP4); conditions: membrane fraction of CHO cells expressing mouse EP4; [3H]-PGE2 2.5 nM; Ki=IC50/(1+([C]/Kd)); read-out: Dissociation Constant Ki (μM) EP4
T1 construct: expressed in transfected cells; host or cells: CHO cells (membrane fraction)
Description: (§1) (i) Binding assay using Expression cell of prostanoids receptor subtype
(§2) The preparation of membrane fraction was carried out according to the method of Sugimoto et al. [J. Biol. Chem., 267, 6463-6466 (1992)], using expression CHO cell of the prostanoids receptor subtype (mouse EP1, EP2, EP3α, EP4 and human IP).
(§3) The standard assay mixture containing membrane fraction (0.5 mg/ml) and [^3H]-PGE2 in a final volume of 200 μl was incubated for 1 hour at room temperature. The reaction was terminated by addition of ice-cooled buffer (3 ml). The mixture was filtered through a GF/B glass filter under reduced pressure. The radioactivity associated with the filter was measured by liquid scintillation counting.
(§4) Kd and Bmax values were determined from Scatchard plots [Ann. N. Y. Acad. Sci., 51, 660 (1949)]. Non-specific binding was calculated as the binding in the presence of an excess (2.5 μM) of unlabeled PGE2. In the measurement of ^3H-PGE2 binding inhibitory activity, [3H]-PGE2 (2.5 nM) and various concentrations of the compounds of the present invention were added. The following buffer was used in all reactions.
(§5) Buffer; 10 mM potassium phosphate (pH 6.0), 1 mM EDTA, 10 mM MgCl2, 0.1 M NaCl.
(§6) The dissociation constant Ki (μM) of each compound was calculated by the following equation.

EP3α = molecular target: T2, EP3α (Mus musculus, UniProt P30557); test: Binding assay using expression CHO cell of prostanoid receptor subtype, [3H]-PGE2 binding inhibition (EP3α); conditions: membrane fraction of CHO cells expressing mouse EP3α; [3H]-PGE2 2.5 nM; Ki=IC50/(1+([C]/Kd)); read-out: Dissociation Constant Ki (μM) EP3α
T2 construct: expressed in transfected cells; host or cells: CHO cells (membrane fraction)
T2 sequence (P30557 1-365): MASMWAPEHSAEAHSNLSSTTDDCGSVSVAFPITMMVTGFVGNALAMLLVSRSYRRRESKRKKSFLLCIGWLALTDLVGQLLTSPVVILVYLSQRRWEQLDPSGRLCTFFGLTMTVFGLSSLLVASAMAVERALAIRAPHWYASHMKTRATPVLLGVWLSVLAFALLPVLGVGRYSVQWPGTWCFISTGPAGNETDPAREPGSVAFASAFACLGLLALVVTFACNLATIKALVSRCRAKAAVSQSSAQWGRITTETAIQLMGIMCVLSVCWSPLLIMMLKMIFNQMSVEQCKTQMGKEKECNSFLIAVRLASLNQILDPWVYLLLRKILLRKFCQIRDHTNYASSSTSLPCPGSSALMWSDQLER
Description: as §1, §2, §3, §4, §5, §6

T1 sequence (P32240 whole entry): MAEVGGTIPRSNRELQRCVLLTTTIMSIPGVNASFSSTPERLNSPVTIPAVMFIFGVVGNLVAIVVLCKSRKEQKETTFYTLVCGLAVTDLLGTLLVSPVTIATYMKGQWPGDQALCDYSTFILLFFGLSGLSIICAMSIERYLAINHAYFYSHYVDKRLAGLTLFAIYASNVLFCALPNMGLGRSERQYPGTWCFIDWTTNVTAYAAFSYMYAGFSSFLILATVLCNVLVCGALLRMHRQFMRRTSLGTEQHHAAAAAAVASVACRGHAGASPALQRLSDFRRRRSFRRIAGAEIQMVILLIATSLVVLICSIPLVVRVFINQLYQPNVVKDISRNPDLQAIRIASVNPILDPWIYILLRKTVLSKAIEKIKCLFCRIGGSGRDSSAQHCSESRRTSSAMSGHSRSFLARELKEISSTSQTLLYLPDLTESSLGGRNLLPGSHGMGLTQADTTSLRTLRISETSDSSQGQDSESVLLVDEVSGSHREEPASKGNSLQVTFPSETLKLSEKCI

Compound	Ki (EP4) [µM]	Ki (EP3α) [µM]
Cc1cc(C[C@H](O)/C=C/[C@H]2[C@H](O)CC(=O)[C@@H]2CCCCCCC(=O)O)ccc1O [2 (4), (11α,15α)-9-oxo-11,15-dihydroxy-16-(3-methyl-4-hydroxyphenyl)-17,18,19,20-tetranorprost-13E-enoic Acid]	0.003	> 10
CCOCc1cccc(CC(O)/C=C/[C@H]2[C@H](O)CC(=O)[C@@H]2CCc2ccc(C(=O)O)cc2)c1 (stereo partly drawn) [5 (12), (11α,15α)-9-oxo-11,15-Dihydroxy-16-(3-ethoxymethylphenyl)-1,6-(1,4-phenylene)-2,3,4,5,17,18,19,20-octanorprost-13E-enoic Acid]	0.008	6
COCc1cccc(C[C@H](O)/C=C/[C@H]2[C@H](O)CC(=O)[C@@H]2CCCCCCC(=O)O)c1 [Example 2, (11α,15α)-9-oxo-11,15-Dihydroxy-16-(3-methoxymethylphenyl)-17,18,19,20-tetranorprost-13E-enoic Acid]	0.006	0.82
COCc1cc(CC(O)/C=C/[C@@H]2[C@@H](C/C=C\CCCC(=O)O)[C@H](Cl)C[C@H]2O)ccc1O (stereo partly drawn) [Example 4, (9β,11α,15ξ)-9-Chloro-11,15-dihydroxy-16-(3-methoxymethyl-4-hydroxyphenyl)-17,18,19,20-tetranorprost-5Z,13E-dienoic Acid]	0.0036	3.2
COc1ccc(C[C@H](O)/C=C/[C@H]2[C@H](O)CC(=O)[C@@H]2C/C=C\CCCC(=O)O)cc1 [reference compound]	0.067	0.048

Further compounds by falling Ki (EP4), results first:

Ki (EP4) [µM]	Ki (EP3α) [µM]	Compound
0.032	0.011	Cc1ccc(C[C@H](O)/C=C/[C@H]2[C@H](O)CC(=O)[C@@H]2C/C=C\CCCC(=O)O)cc1 [reference compound]
0.01	0.54	CCOCc1cccc(C[C@H](O)/C=C/[C@H]2[C@H](O)CC(=O)[C@@H]2C/C=C\CCCC(=O)O)c1 [2 (11), (11α,15α)-9-oxo-11,15-Dihydroxy-16-(3-ethoxymethylphenyl)-17,18,19,20-tetranorprost-5Z,13E-dienoic Acid]
0.0059	0.35	CCCOCc1cccc(CC(O)/C=C/[C@@H]2[C@@H](C/C=C\CCCC(=O)O)[C@H](F)C[C@H]2O)c1 (stereo partly drawn) [4 (12), (9β,11α,15ξ)-9-Fluoro-11,15-dihydroxy-16-(3-propyloxymethylphenyl)-17,18,19,20-tetranorprost-5Z,13E-dienoic Acid]
0.0026	1.4	COCc1cccc(C[C@H](O)/C=C/[C@H]2CCC(=O)[C@@H]2C/C=C\CCCC(=O)O)c1 [2 (15), (15α)-9-oxo-15-Hydroxy-16-(3-methoxymethylphenyl)-17,18,19,20-tetranorprost-5Z,13E-dienoic Acid]
0.0016	0.12	O=C(O)CCCCCC[C@H]1C(=O)C[C@@H](O)[C@@H]1/C=C/[C@@H](O)Cc1cccc(CCF)c1 [2 (1), (11α,15α)-9-oxo-11,15-Dihydroxy-16-[3-(2-fluoroethyl)phenyl]-17,18,19,20-tetranorprost-13E-enoic Acid]
0.0015	0.04	CCOCc1cccc(C[C@H](O)/C=C/[C@@H]2[C@@H](C/C=C\CCCC(=O)O)[C@H](Cl)C[C@H]2O)c1 [8 (6), (9β,11α,15α)-9-Chloro-11,15-dihydroxy-16-(3-ethoxymethylphenyl)-17,18,19,20-tetranorprost-5Z,13E-dienoic Acid]
